The test system of one data set is sarcoma HT-1080. In kind it is in vivo, nude mice. The source says:
(§1) The total medication period was 14 days.

The format of data set [1] is in vivo, nude mice. Particulars: mouse, in vivo.
From the text: as §1

In data set [2] the test system is human testicular cancer 5637. The data set is classed as in vivo, nude mice.
From the text: as §1

The subject of data set [3] is human ovarian cancer SK-OV-3. In kind it is in vivo, nude mice.
Method: (§2) Taking a certain amount of vigorously growing tumor tissue, grinding the tumor tissue under sterile conditions and preparing cell suspension at the concentration of 1×10^7 cells/ml; then hypodermicaly inoculating 0.1 ml of the cell suspension into the right axillary region of nude mice. Keeping measuring the diameter of the transplanted tumor with a vernier caliper, and randomly dividing the mice into groups when the volume of the tumor reached 100-200 mm^3. […] Measuring the tumor diameter once every other day and recording the body weight of mice simultaneously. Intravenously injecting polypeptides to mice from test groups while administering equal quantity of physiological saline to mice from the negative control group. The total medication period was 14 days. Avastin was adopted to set up a positive control group; it was administered through the tail vein once every three days while all other drugs were administered through the tail vein once a day. Leaving mice for a one-week rest after 14 days' medication, then (21 days after medication) killing the mice, surgically dissecting the tumors and measuring the weight of tumors. The tumor volume (TV) was calculated in accordance with the following formula: TV=½×a×b^2
Data set [4] relates to human cervical cancer HeLa. The data set is classed as in vivo, nude mice.
Method: as §2
In data set [5] the test system is human prostate cancer DU-145. In kind it is in vivo, nude mice.
Method: as §2
In data set [6] the test system is human thyroid cancer SW-579. In kind it is in vivo, nude mice.
Method: as §2
Another data set relates to human colon cancer HT-29. In kind it is in vivo, nude mice.
Another data set has as its system human renal cancer A498. In kind it is in vivo, nude mice.
Another data set has as its system melanoma B16F10. The experiment in a line: transplanted melanoma B16F10 in C57BL/6 black mice. Particulars: 15 mg/kg/time once every other day, hypodermic, 14 days. As to the method: Hypodermically injecting polypeptides and other drugs into the left axillary region of mice from the experimental groups respectively while administering only equal quantity of physiological saline to the mice from the negative control group. The total medication period was 14 days, during which cyclophosphamide was administered once every other day, taxol once every three days, low-dose polypeptide twice a day and all other drugs once a day.

The test system of data set [7] is human esophageal cancer Ec109. The data set is classed as in vivo, nude mice.
From the text: as §1

The test system of data set [8] is human breast cancer MDA-MB-231. The conditions noted are these: mouse, in vivo.
Method: (§3) Taking a certain amount of vigorously growing tumor tissue, grinding the tumor tissue under sterile conditions and preparing cell suspension at the concentration of 1×10^7 cells/ml; then hypodermicaly inoculating 0.1 ml of the cell suspension into the right axillary region of nude mice. Keeping measuring the diameter of the transplanted tumor with a vernier caliper, and randomly dividing the mice into groups when the volume of the tumor reached 100-200 mm^3. Observing the dynamic effect of integrin-blocking polypeptides on inhibiting the growth of the tumor by means of documenting the change of tumor diameters. Measuring the tumor diameter once every other day and recording the body weight of mice simultaneously. Intravenously injecting polypeptides to mice from test groups while administering equal quantity of physiological saline to mice from the negative control group. The total medication period was 14 days. Avastin was adopted to set up a positive control group; it was administered through the tail vein once every three days while all other drugs were administered through the tail vein once a day. Leaving mice for a one-week rest after 14 days' medication, then (21 days after medication) killing the mice, surgically dissecting the tumors and measuring the weight of tumors. The tumor volume (TV) was calculated in accordance with the following formula: TV=½×a×b^2
(§4) wherein a, b refer to the length and width of the tumor respectively.
(§5) The relative tumor volume (RTV) can be calculated in accordance with the results of measurement, using the formula: RTV=Vt/V0, wherein V0 refers to the initial tumor volume measured on the date starting medication (namely d0) while Vt the tumor volume obtained through every measurement. The anti-tumor activity was evaluated by relative proliferation rate T/C (%), which was calculated in accordance with the following formula:
(§6) wherein TRTV refers to the RTV of experimental groups; CRTV refers to the RTV of the negative control group.
Data set [9] relates to human breast cancer MDA-MB-231. The experiment in a line: heterotransplanted human breast cancer MDA-MB-231 in nude mice. Particulars: 10 mg/kg/time, tail vein once every three days.
Method: as §3, §4, §5, §6
Data set [10] has as its system human gallbladder cancer GBC-SD. The experiment in a line: heterotransplanted human gallbladder cancer GBC-SD in nude mice.
Method: as §3
(§7) Avastin used in the positive control group was administered once every 2 days through tail vein injection, while drugs of all other groups were administered on daily basis through tail vein injection.
The subject of data set [11] is human pancreatic cancer SW-1990. Description: heterotransplanted human pancreatic cancer SW-1990 in nude mice. In kind it is in vivo.
From the text: as §1

In data set [12] the test system is human gallbladder cancer GBC-SD. The conditions noted are these: mouse, in vivo.
Method: as §3, §7
Data set [13] deals with human bladder cancer HT1376. Description: heterotransplanted human bladder cancer HT1376 in nude mice. In kind it is in vivo.
From the text: as §1

Data set [14] deals with human laryngeal cancer Hep-2. Description: heterotransplanted human laryngeal cancer Hep-2 in nude mice. In kind it is in vivo.
From the text: as §1

The mark [15] stands for this setting: 5-FU 10 mg/kg/time, once every 3 days, tail vein injection.
The mark [16] stands for this setting: positive control, tail vein once every 3 days.
[17] abbreviates: 10 mg/kg/time, once every 3 days, tail vein injection.
[18] abbreviates: cisplatin 10 mg/kg/time, once every 3 days, tail vein injection.
The mark [19] stands for this setting: 10 mg/kg/time, tail vein once every 3 days.
The mark [20] stands for this setting: 5 mg/kg/time (as printed in Table 29), once every 3 days, tail vein injection.
[21] abbreviates: 10 mg/kg/time, once every 2 days, tail vein injection.
Setting [22] is: avastin 10 mg/kg/time, once every 3 days, tail vein injection.

Where “and” joins values, the source holds several entries; their conditions need not be identical. Identical values can stand only once. Like-named read-outs stand apart in the source and are kept apart here.

Method for human colon cancer HT-29: as §2
Method for human renal cancer A498: as §2

For the molecule `O=c1[nH]cc(F)c(=O)[nH]1` [5-FU, 5-fluorouracil, reference compound], the tumor inhibition rate was found to be 78.10% in the data set with sarcoma HT-1080 (setting [15]) and 77.80% in data set [2] (setting [17]). Further, the tumor weight in the data set on sarcoma HT-1080 (setting [15]) stood at 0.30 ± 0.07 g; in data set [2] (setting [17]), 0.28 ± 0.06 g. In addition, the “body weight of animals, in words” value in the data set with sarcoma HT-1080 (mouse, in vivo) is recorded as “greatly reduced the body weight”; in data set [1], “greatly reduced the body weight”. Further, the “toxic and side effects, in words” value was “more apparent toxic and side effects” in the data set with sarcoma HT-1080 (mouse, in vivo); “more apparent toxic and side effects” in data set [2] (mouse, in vivo). Also, the “inhibition rate on tumor” value is 78.10% in the data set with sarcoma HT-1080 (setting [16]); 77.80% and 73.84% in data set [2] (tail vein once every 3 days).
With `N.N.[Cl][Pt][Cl]` [cisplatin, reference compound], the tumor inhibition rate in [3] (setting [18]) is given as 78.36%; in data set [4] (setting [19]), 73.13%; in data set [5] (setting [20]), 73.84%; in [5] (setting [17]), 73.84%; in data set [5] (setting [19]), 73.84%; in data set [6] (setting [17]), 74.09%. For the same molecule, the tumor inhibition rate with human colon cancer HT-29 (setting [17]) stood at 79.17%; with human renal cancer A498 (setting [17]), 79.83%. In addition, the tumor weight is reported as 0.29 ± 0.06 g in [3] (setting [18]); 0.38 ± 0.10 g in data set [4] (setting [19]); 0.37 ± 0.10 g in data set [5] (setting [20]); 0.37 ± 0.10 g in data set [5] (setting [17]); 0.37 ± 0.10 g in data set [5] (setting [19]); 0.34 ± 0.07 g in [6] (setting [17]). Further, the tumor weight in the data set with human colon cancer HT-29 (setting [17]) is given as 0.30 ± 0.05 g; in the data set on human renal cancer A498 (setting [17]) it was 0.25 ± 0.06 g. Besides, the “body weight of animals, in words” value in [3] (mouse, in vivo) is “greatly reduced the body weight”; in data set [4] (mouse, in vivo), “greatly reduced the body weight”; in [5] (mouse, in vivo) it was “greatly reduced the body weight”; in [6] (mouse, in vivo), “greatly reduced the body weight”; in the data set on human colon cancer HT-29 (mouse, in vivo), “greatly reduced the body weight”; with human renal cancer A498 (mouse, in vivo), “greatly reduced the body weight”. In addition, the “inhibition rate on tumor” value in data set [3] (setting [16]) is given as 78.36%; in data set [6] (setting [16]) it was 74.09%; with human colon cancer HT-29 (setting [16]) it was 79.17%; in the data set with human renal cancer A498 (setting [16]), 79.83%.
For `O=P1(N(CCCl)CCCl)NCCCO1` (stereo not shown) [cyclophosphamide], in the data set on melanoma B16F10, the final weight is listed as 17.3 ± 1.5 g, the tumor inhibition rate is 64.95% and the tumor weight is listed as 1.40 ± 0.06 g.
Consider “avastin: Avastin was adopted to set up a positive control group [reference compound]”, for which the tumor inhibition rate amounted to 69.00% in [7] (setting [17]); 78.85% in data set [10] (setting [21]); 79.07% in data set [11] (setting [17]); 79.60% in [13] (setting [17]); 76.79% in [14] (setting [22]). Also, the tumor weight was found to be 0.47 ± 0.10 g in [7] (setting [17]); 0.26 ± 0.08 g in data set [9]; 0.25 ± 0.06 g in [10] (setting [21]); 0.27 ± 0.07 g in data set [11] (setting [17]); 0.24 ± 0.06 g in data set [13] (setting [17]); 0.26 ± 0.06 g in [14] (setting [22]). Moreover, the “body weight of animals, in words” value in data set [7] (mouse, in vivo) is “no significant change”; in data set [8], “no obvious change”; in [11] (mouse, in vivo), “no significant change”; in data set [12] it was “no significant change”; in data set [13] (mouse, in vivo), “no significant change”; in data set [14] (mouse, in vivo), “no significant change”. For the same molecule, the “inhibition rate on tumor” value in data set [7] (setting [16]) is 69.00%; in data set [10] (positive control, tail vein once every 2 days), 78.85%; in [11] (setting [16]) it was 79.07%; in data set [13] (setting [16]) it was 79.60%; in [14] (setting [16]) it was 76.79%.

The record behind these values is US9458203B2, “Integrin-blocking polypeptides and uses thereof” (priority 2011, dated 2016).
